Experimental data published in patent US10667512B2, “Terpene-containing compositions and methods of making and using them” (Eden Research PLC, priority 2005, dated 2020).
Where two headings read alike, the source gives them in different places.

What was measured:
[1] = test system: H. pylori; settings: in vitro; cited from earlier work
[2] = Terpene loading into yeast particles, absence of free terpene after centrifugation; assay type: physicochemical; settings: for Vol. loaded: 500 μl of 250 mg/ml; for % Loaded w/w: terpene to particle weight; for terpene emulsion absorbed and encapsulated per 10 mg of YP: Baker's YP 20 mg/ml; for terpene emulsion absorbed and encapsulated per 125 mg of YP: Baker's YP 250 mg/ml
Procedure: (§1) Samples were centrifuged at 14,000×g for 10 minutes and the appearance of free terpene floating on the aqueous layer was scored.
The expression “free terpene” refers to the visible presence of terpene in the centrifuged reaction mixture. The absence of free terpene indicates complete absorption of the terpene by the particles. The highest volume of terpene absorbed by the particles, as evidenced by the absence of free terpene, was recorded as the maximal volume of absorbed terpene emulsion.
as §1
The expression “free terpene” refers to the visible presence of terpene in the centrifuged reaction mixture. The absence of free terpene indicates complete absorption of the terpene by the YP. The highest volume of terpene absorbed by the YP, as evidenced by the absence of free terpene, was recorded as the maximal volume of absorbed terpene emulsion.
Increasing volumes of terpene emulsion were mixed with 250 mg/ml Baker's YP or 250 mg/ml SAF Mannan™ overnight at room temperature as shown in Tables 7 and 8. Samples were centrifuged at 14,000×g for 10 minutes and the appearance of free terpene floating on the aqueous layer was scored. The highest volume of terpene emulsion absorbed by Baker's YP or SAF Mannan™ as evidenced by the absence of free terpene was recorded as the volume of absorbed terpene emulsion. Colour of encapsulated terpenes in the pellet was recorded.
Percentage loaded represents a ratio of the amount of terpene loaded to the amount of particle present (weight for weight).

[3] = test system: S. aureus; assay: MIC of terpene emulsions and fresh or freeze-dried Baker's YP / SAF Mannan encapsulated terpenes; assay type: cell-based; settings: for MIC, Bakers Freeze Dried / MIC, Bakers Fresh: encapsulated in Baker's YP; for MIC, SAF Mannan Freeze Dried / MIC, SAF Mannan Fresh: encapsulated in SAF Mannan; for MIC, Emulsion: terpene emulsion
Procedure: The results of a protocol performed to compare the MIC of fresh versus freeze dried hollow glucan particle encapsulated terpene formulations are shown below in Table 13. A simple terpene emulsion was also tested and the results are shown for comparison.

[4] = Citral solution and stable suspension; assay type: physicochemical
Excerpt: In one embodiment the terpene component includes one or more terpenes which contain oxygen.

[5] = test system: E. coli; settings: cited from earlier work
[6] = assay type: physicochemical
Procedure: The reactions were incubated for 1, 3, 6, 9 and 24 hours at room temperature or 37° C. After incubation samples were centrifuged at 14,000×g for 10 minutes and the appearance of free terpene floating on the aqueous layer was scored. The highest volume of terpene absorbed by the particles as evidenced by the absence of free terpene was recorded as the volume of absorbed terpene emulsion. Colour of the encapsulated pellet was scored at 24 hours.

| Molecule | concentration that inhibited the growth of H. pylori [1] | Vol. loaded ([2]; maximal loading in Baker's YP) | % Loaded w/w ([2]; maximal loading in Baker's YP) | Vol. loaded ([2]; maximal loading in SAF Mannan) | % Loaded w/w ([2]; maximal loading in SAF Mannan) | MIC, Bakers Freeze Dried [3] | MIC, Bakers Fresh [3] | MIC, SAF Mannan Freeze Dried [3] | MIC, SAF Mannan Fresh [3] | MIC, Emulsion [3] | concentration up to which a solution can be made [4] | concentration up to which a stable suspension can be formed [4] | concentration in growth media that reduced the concentration of E. coli [5] | concentration with bactericidal effect [5] | terpene emulsion absorbed and encapsulated per 10 mg of YP [2] | terpene emulsion absorbed and encapsulated per 125 mg of YP [2] | protection of citral from oxidation ([6]; in Baker's YP) | protection of citral from oxidation ([6]; in SAF Mannan) |
| --- | --- | --- | --- | --- | --- | --- | --- | --- | --- | --- | --- | --- | --- | --- | --- | --- | --- | --- |
| CC(C)=CCC/C(C)=C/CO [Geraniol] | 2 mg/L | 75 µL | 67% w/w | 150 µL | 133% w/w | 0.06 μg/ml terpene | 0.03 μg/ml terpene | >0.03 μg/ml terpene | 0.02 μg/ml terpene | 0.47 μg/ml terpene |  |  |  |  |  |  |  |  |
| CC(C)=CCCC(C)=CC=O [Citral, 3,7-dimethyl-2,6-octadien-1-al] |  | 75 µL | 67% w/w | 150 µL | 133% w/w | 0.05 μg/ml terpene | 0.01 μg/ml terpene | >0.03 μg/ml terpene | 0.01 μg/ml terpene | 0.94 μg/ml terpene | up to 500 ppm | up to 2500 ppm | more than 0.01% | 0.08% | at least 5 μl | at least 75 μl | not by the Baker's YP | protected from oxidation |
| C=CCc1ccc(O)c(OC)c1 [Eugenol] |  | 75 µL | 67% w/w | 112.5 µL | 100% w/w | 0.05 μg/ml terpene | 0.03 μg/ml terpene | 0.05 μg/ml terpene | 0.01 μg/ml terpene | 0.12 μg/ml terpene |  |  |  |  |  |  |  |  |
| L-carvone |  | 37.5 µL | 33.3 % w/w | 112.5 µL | 100% w/w | >0.04 μg/ml terpene | 0.1 μg/ml terpene | >0.02 μg/ml terpene | 0.01 μg/ml terpene | 3.75 μg/ml terpene |  |  |  |  | at least 16.5 μl | at least 112.5 μl |  |  |
